What was measured:
RAW264.7 [1] = assay: Displacement of [3H]-folic acid from folate receptor on mouse RAW264.7 cells assessed as relative binding after 1 hr by liquid scintillation counting; assay type: cell-based
RAW264.7 [2] = assay: Cytotoxicity against mouse RAW264.7 cells incubated for 5 hrs followed by replacement with fresh media measured after 72 hrs by XTT assay; assay type: functional, cell-based
RAW264.7 [3] = assay: Antiinflammatory activity in mouse RAW264.7 cells assessed as inhibition of LPS-induced TNFalpha production after 72 hrs […]; assay type: functional, cell-based; conditions: RAW264.7, 72 h

CC[C@H](C)[C@H]1NC(=O)[C@@H](NC(=O)[C@@H](CC(C)C)N(C)C(=O)[C@H]2CCCN2C(=O)C(C)OC(=O)OCCSSC[C@H](NC(=O)[C@H](CC(=O)O)NC(=O)[C@H](CC(=O)O)NC(=O)[C@H](CCCNC(=N)N)NC(=O)[C@H](CC(=O)O)NC(=O)CC[C@H](NC(=O)c2ccc(NCc3cnc4nc(N)[nH]c(=O)c4n3)cc2)C(=O)O)C(=O)O)[C@@H](C)OC(=O)[C@H](Cc2ccc(OC)cc2)N(C)C(=O)[C@@H]2CCCN2C(=O)[C@H](CC(C)C)NC(=O)[C@@H](C)C(=O)[C@H](C(C)C)OC(=O)C[C@@H]1O (some centres undefined) [FOLATE DIDEMNIN B]
relative binding affinity (RBA) (RAW264.7 [1]): 0.18
Activity (RAW264.7 [2]): Dose-dependent effect
IC50 (RAW264.7 [2]): 13 nM
IC50 (RAW264.7 [3]): 5 nM

From ChEMBL document CHEMBL1944525, “Synthesis and activity of folate conjugated didemnin B for potential treatment of inflammatory diseases” (Bioorg Med Chem Lett, 2012)
